MIC80 and MIC50 data for three compounds are collected here from US9512087B2, “Hybrid molecules containing pharmacophores of fluconazole as antifungal agents and their preparation” (Council for Scientific & Industrial Research, priority 2011, dated 2016).

Test in all cases: Antifungal MIC, broth dilution
On the technique in general: In broth dilution the organism is exposed to a series of concentrations in liquid medium.

In one assay the test system is C. albicans ATCC 24433. The class given is cell-based, Candida albicans. The following applies: Candida albicans, ATCC24433, RPMI 1640 with MOPS, end point 48 hours; for MIC80: read-out: Ca01 A: MIC80; for MIC50: read-out: Ca01 B: MIC50. In outline: (§1)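 Broth dilution in RPMI 1640 with MOPS buffer per CLSI M27-A2 (yeasts) and M38-A (filamentous fungi); fluconazole and amphotericin-B as positive controls. MIC end points read after 48 hours, visually or by spectrophotometer where needed.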

A further assay concerns C. glabrata ATCC 90030. It is filed as cell-based. Conditions: Nakaseomyces glabratus, ATCC90030, RPMI 1640 with MOPS, end point 48 hours, read-out: Cg01 MIC50.
The next assay has as its system C. krusei ATCC 6258. It is filed as cell-based. The following applies: Pichia kudriavzevii, ATCC6258, RPMI 1640 with MOPS, end point 48 hours, read-out: Ck01 MIC50.
For another assay, the system named is C. tropicalis ATCC 750. The class given is cell-based. The following applies: Candida tropicalis, ATCC750, RPMI 1640 with MOPS, end point 48 hours, read-out: Ct01 MIC50.
In another assay the test system is C. neoformans ATCC 34664. The class given is cell-based. Conditions: Cryptococcus neoformans, ATCC34664, RPMI 1640 with MOPS, end point 48 hours, read-out: Cn01 MIC50.
The subject of a further assay is A. niger ATCC 16404. It is filed as cell-based, Aspergillus niger. Conditions: Aspergillus niger, ATCC16404, RPMI 1640 with MOPS, end point 48 hours, read-out: An01 MIC50. An outline of the steps: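 Broth dilution per CLSI standards in MOPS-buffered RPMI 1640; inhibition endpoints taken at 48 hours.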
The next assay relates to A. fumigatus ATCC 46645. The class given is cell-based. The following applies: Aspergillus fumigatus, ATCC46645, RPMI 1640 with MOPS, end point 48 hours, read-out: Afm01 MIC50.
For assay [1], the system named is F. proliferatum ATCC 10052. It is filed as cell-based, Fusarium proliferatum. The following applies: Fusarium proliferatum, ATCC10052, RPMI 1640 with MOPS, end point 48 hours, read-out: Fp01 MIC50. An outline of the steps:
as §1

Broadly, the MIC80 is an inhibitory concentration at the 80% level, which refers to growth in some studies and to a panel of isolates in others. One may read the MIC50 as an inhibitory concentration at the 50% level, which refers to growth in some studies and to a panel of isolates in others.

Molecules are shown by their SMILES. Values after ≈ are worked out from the molar mass of the structure shown. A value given as a limit tells only on which side of the number the result lay.

`COc1ccc(/C=C/C(=O)c2ccc(OC[C@@](O)(Cn3cncn3)c3ccc(F)cc3F)cc2)cc1` [S-(+)-1A-2]: the MIC80 in the assay on C. albicans ATCC 24433 turned out to be 1 µg/mL (≈ 2.03 µM). The MIC50 with C. albicans ATCC 24433 was 0.5 µg/mL (≈ 1.02 µM); in the assay on C. glabrata ATCC 90030, 1 µg/mL (≈ 2.03 µM); with C. krusei ATCC 6258 it was more than 4 µg/mL; with C. tropicalis ATCC 750 it was 2 µg/mL (≈ 4.07 µM); in the assay on C. neoformans ATCC 34664, 2 µg/mL (≈ 4.07 µM); in the assay on A. niger ATCC 16404, more than 4 µg/mL. The MIC50 (in the assay on A. fumigatus ATCC 46645; in assay [1]) was more than 4 µg/mL throughout.
On to `O=C(/C=C/c1ccc(Cl)cc1)c1ccc(OC[C@@](O)(Cn2cncn2)c2ccc(F)cc2F)cc1` [S-(+)-1A-6, S-(+)-(E)-3-(4-chlorophenyl)-1-(4-(2-(2,4-difluorophenyl)-2-hydroxy-3-(1H-1,2,4-triazol-1-yl)propoxy)phenyl)prop-2-en-1-one], for which the MIC80 in the assay with C. albicans ATCC 24433 is 2 µg/mL (≈ 4.03 µM). The MIC50 is 1 µg/mL (≈ 2.02 µM) in the assay on C. albicans ATCC 24433; 0.5 µg/mL (≈ 1.01 µM) in the assay with C. glabrata ATCC 90030; 4 µg/mL (≈ 8.07 µM) with C. krusei ATCC 6258; 2 µg/mL (≈ 4.03 µM) in the assay with C. tropicalis ATCC 750; 2 µg/mL (≈ 4.03 µM) in the assay on C. neoformans ATCC 34664; more than 4 µg/mL in the assay with A. niger ATCC 16404. For the same compound, the MIC50 (with A. fumigatus ATCC 46645; in assay [1]) was more than 4 µg/mL in each case.
In the case of `O=C(/C=C/c1cccs1)c1ccc(OC[C@@](O)(Cn2cncn2)c2ccc(F)cc2F)cc1` [S-(+)-1A-13], the MIC80 with C. albicans ATCC 24433 was 0.5 µg/mL (≈ 1.07 µM). Moreover, the MIC50 in the assay with C. albicans ATCC 24433 is 0.25 µg/mL (≈ 0.535 µM); with C. glabrata ATCC 90030, 0.25 µg/mL (≈ 0.535 µM); with C. krusei ATCC 6258, more than 4 µg/mL; in the assay on C. tropicalis ATCC 750 it was 2 µg/mL (≈ 4.28 µM); in the assay on C. neoformans ATCC 34664 it was 4 µg/mL (≈ 8.56 µM); in the assay with A. niger ATCC 16404, more than 4 µg/mL. Besides, the MIC50 (in the assay on A. fumigatus ATCC 46645; in assay [1]) was more than 4 µg/mL in each case.
